Measurements as given in ChEMBL document CHEMBL5465560, “Selectivity Literature for EUbOPEN Chemogenomic Library” (2024).

How the values were obtained:
[1] = target: T1, Dual specificity mitogen-activated protein kinase kinase 3 (Homo sapiens) (UniProt P46734); test: Selectivity interaction (KinomeScan (DiscoverX)) EUB0001049a MAP2K3; conditions: at 1 µM
T1 sequence (whole entry): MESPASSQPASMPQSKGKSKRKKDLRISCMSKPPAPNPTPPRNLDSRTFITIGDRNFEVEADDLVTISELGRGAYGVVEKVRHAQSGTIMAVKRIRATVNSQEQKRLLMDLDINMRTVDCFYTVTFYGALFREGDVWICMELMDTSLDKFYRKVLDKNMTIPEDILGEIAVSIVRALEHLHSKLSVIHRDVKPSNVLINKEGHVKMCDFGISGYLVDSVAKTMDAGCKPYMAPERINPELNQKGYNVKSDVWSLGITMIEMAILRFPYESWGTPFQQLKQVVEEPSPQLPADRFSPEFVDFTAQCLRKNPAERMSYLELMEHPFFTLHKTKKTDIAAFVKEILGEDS

[2] = target: Voltage-dependent L-type calcium channel subunit alpha-1S (Homo sapiens) (UniProt Q13698); test: Selectivity interaction (Eurofins CEREP Diversity Profile (receptors and ion channels)) EUB0000279b CACNA1S; conditions: at 10 µM
[3] = target: Ribosomal protein S6 kinase alpha-3 (Homo sapiens, UniProt P51812); test: Selectivity interaction (ActivX KiNativ screen (kinase selectivity in THP-1 cell lysates)) EUB0000639a RPS6KA3; type: subcellular; conditions: lysate, at 5 µM
[4] = target: T2, Protein kinase C zeta type (Homo sapiens) (UniProt Q05513); test: Selectivity interaction (ActivX KiNativ screen (kinase selectivity in THP-1 cell lysates)) EUB0000639a PRKCZ; type: subcellular; conditions: lysate
T2 sequence (whole entry): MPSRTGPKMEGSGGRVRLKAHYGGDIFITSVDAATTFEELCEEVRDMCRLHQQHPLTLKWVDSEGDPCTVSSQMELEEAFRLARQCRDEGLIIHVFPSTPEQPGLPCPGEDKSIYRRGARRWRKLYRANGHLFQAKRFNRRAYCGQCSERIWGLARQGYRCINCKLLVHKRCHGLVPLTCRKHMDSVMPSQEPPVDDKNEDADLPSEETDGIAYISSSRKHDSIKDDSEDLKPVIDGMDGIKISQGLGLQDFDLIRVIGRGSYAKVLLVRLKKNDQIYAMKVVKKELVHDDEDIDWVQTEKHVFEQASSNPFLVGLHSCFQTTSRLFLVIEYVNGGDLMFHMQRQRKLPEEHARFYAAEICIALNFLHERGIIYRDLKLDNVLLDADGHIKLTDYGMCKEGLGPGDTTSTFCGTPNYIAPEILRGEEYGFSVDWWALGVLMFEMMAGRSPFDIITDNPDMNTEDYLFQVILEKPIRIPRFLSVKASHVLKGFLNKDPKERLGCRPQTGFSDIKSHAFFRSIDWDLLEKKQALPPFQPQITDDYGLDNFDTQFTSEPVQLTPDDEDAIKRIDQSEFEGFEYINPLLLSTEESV

[5] = target: 5'-AMP-activated protein kinase catalytic subunit alpha-1 (Homo sapiens, UniProt Q13131); test: Selectivity interaction (KinomeScan (DiscoverX)) EUB0000092b PRKAA1; conditions: at 10 µM
[6] = target: T3, Mitogen-activated protein kinase kinase kinase 15 (Homo sapiens) (UniProt Q6ZN16); test: Selectivity interaction (KinomeScan (DiscoverX)) EUB0000092b MAP3K15; conditions: at 10 µM
T3 sequence (whole entry): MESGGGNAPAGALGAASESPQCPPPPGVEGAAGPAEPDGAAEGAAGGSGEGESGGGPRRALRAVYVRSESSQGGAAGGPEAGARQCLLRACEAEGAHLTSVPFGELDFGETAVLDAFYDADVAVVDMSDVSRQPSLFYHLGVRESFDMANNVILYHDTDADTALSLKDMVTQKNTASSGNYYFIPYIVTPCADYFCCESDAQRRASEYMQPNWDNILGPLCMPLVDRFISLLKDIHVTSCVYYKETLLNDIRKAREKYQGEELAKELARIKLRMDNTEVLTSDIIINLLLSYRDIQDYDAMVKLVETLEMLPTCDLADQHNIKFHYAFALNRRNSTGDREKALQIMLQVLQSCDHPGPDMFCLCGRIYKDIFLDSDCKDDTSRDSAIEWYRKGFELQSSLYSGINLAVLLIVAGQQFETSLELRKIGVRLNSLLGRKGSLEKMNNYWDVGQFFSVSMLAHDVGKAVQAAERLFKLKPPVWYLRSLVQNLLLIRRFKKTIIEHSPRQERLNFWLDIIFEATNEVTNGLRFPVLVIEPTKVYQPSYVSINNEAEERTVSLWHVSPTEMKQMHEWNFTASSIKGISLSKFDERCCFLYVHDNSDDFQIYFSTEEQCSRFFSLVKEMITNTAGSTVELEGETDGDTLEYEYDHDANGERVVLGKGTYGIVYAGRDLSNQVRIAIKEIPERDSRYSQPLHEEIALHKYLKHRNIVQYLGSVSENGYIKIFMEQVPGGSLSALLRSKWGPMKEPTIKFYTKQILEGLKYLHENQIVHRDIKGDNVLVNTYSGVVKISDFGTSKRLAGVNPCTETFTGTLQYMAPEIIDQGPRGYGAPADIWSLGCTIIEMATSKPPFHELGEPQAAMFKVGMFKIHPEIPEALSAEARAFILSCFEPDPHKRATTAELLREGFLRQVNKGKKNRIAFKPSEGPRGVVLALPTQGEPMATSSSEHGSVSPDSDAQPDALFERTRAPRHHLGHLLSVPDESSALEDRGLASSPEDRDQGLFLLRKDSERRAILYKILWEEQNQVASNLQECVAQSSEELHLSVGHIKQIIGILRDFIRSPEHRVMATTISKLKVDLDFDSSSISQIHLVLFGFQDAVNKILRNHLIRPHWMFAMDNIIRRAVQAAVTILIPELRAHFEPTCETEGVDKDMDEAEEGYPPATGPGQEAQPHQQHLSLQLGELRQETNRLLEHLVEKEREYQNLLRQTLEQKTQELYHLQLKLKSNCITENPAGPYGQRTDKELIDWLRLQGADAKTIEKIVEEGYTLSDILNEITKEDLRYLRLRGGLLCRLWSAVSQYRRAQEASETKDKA

[7] = target: Mitogen-activated protein kinase kinase kinase kinase 5 (Homo sapiens) (UniProt Q9Y4K4); test: Selectivity interaction (KinomeScan (DiscoverX)) EUB0000618a MAP4K5; conditions: at 10 µM
[8] = system: Tyrosine-protein kinase ABL1 (Homo sapiens), P00519 [Q252H]; conditions: at 10 µM
[9] = target: Serine/threonine-protein kinase MRCK beta (Homo sapiens) (UniProt Q9Y5S2); test: Selectivity interaction (Upstate Kinase Profiler service (Millipore)) EUB0000056c CDC42BPB; conditions: at 1 µM
[10] = target: L-type calcium channel Cav1.2 (CACNA1C) (Homo sapiens, UniProt Q13936); test: Selectivity interaction (Panel of kinases, GPCRs, ion channels and transporters (enzymatic assay)) EUB0000266bCl CACNA1C
L-type calcium channel Cav1.2 (CACNA1C), sequence (Q13936 whole entry): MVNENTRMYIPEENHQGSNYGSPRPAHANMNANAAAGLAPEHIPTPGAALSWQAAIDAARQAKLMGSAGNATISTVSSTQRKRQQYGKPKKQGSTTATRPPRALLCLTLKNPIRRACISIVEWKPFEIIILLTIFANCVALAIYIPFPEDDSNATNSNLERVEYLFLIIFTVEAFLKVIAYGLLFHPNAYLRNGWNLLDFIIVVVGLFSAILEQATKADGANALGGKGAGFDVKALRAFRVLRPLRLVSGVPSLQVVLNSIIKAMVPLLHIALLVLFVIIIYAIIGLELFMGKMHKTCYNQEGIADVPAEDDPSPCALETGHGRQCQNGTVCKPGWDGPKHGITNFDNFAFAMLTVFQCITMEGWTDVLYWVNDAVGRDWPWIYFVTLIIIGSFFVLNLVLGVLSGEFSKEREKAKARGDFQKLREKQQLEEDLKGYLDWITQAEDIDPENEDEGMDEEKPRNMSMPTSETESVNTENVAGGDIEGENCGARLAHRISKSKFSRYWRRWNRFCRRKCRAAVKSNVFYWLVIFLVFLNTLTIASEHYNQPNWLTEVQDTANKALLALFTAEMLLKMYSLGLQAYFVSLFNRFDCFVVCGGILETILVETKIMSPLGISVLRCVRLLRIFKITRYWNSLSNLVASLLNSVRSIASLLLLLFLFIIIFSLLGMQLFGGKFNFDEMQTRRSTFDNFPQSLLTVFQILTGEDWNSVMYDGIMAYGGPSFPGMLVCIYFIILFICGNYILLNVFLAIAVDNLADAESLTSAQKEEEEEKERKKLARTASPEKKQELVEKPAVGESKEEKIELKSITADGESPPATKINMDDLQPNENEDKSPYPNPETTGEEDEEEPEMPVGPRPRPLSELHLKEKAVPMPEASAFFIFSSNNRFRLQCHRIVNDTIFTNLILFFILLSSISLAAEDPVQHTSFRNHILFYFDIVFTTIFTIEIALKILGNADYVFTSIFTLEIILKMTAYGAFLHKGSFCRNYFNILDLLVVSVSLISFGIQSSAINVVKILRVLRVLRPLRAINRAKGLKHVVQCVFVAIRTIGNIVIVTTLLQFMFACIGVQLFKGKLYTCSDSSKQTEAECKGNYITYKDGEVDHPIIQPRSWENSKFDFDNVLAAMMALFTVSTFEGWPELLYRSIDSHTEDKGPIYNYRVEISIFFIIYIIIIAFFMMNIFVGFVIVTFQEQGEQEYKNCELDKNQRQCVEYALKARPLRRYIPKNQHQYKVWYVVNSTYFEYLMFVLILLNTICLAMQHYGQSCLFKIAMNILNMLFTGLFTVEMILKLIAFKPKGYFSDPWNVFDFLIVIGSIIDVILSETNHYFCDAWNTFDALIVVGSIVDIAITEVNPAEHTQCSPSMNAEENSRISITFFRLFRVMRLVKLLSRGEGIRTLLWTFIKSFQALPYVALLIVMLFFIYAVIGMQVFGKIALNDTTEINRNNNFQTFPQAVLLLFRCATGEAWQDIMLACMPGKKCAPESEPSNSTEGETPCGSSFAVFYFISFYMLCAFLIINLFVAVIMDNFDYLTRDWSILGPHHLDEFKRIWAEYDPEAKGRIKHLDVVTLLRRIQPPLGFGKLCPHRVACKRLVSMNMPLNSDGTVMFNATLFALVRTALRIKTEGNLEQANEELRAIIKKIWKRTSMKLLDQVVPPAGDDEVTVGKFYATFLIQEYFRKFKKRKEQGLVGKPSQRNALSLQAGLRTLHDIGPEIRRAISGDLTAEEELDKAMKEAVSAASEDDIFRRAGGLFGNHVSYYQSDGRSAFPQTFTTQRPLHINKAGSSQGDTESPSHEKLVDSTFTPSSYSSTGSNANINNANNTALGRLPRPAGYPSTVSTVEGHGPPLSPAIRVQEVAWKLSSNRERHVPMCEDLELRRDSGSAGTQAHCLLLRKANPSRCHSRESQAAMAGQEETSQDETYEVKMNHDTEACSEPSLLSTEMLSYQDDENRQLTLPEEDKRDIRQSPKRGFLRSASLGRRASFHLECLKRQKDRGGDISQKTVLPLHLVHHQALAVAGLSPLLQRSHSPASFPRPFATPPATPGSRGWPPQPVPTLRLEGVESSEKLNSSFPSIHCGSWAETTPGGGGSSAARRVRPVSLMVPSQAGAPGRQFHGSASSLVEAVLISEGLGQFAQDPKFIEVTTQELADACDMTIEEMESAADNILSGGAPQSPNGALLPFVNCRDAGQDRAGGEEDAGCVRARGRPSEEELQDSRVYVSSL

Serine/threonine-protein kinase MRCK beta (Homo sapiens), sequence (Q9Y5S2 whole entry): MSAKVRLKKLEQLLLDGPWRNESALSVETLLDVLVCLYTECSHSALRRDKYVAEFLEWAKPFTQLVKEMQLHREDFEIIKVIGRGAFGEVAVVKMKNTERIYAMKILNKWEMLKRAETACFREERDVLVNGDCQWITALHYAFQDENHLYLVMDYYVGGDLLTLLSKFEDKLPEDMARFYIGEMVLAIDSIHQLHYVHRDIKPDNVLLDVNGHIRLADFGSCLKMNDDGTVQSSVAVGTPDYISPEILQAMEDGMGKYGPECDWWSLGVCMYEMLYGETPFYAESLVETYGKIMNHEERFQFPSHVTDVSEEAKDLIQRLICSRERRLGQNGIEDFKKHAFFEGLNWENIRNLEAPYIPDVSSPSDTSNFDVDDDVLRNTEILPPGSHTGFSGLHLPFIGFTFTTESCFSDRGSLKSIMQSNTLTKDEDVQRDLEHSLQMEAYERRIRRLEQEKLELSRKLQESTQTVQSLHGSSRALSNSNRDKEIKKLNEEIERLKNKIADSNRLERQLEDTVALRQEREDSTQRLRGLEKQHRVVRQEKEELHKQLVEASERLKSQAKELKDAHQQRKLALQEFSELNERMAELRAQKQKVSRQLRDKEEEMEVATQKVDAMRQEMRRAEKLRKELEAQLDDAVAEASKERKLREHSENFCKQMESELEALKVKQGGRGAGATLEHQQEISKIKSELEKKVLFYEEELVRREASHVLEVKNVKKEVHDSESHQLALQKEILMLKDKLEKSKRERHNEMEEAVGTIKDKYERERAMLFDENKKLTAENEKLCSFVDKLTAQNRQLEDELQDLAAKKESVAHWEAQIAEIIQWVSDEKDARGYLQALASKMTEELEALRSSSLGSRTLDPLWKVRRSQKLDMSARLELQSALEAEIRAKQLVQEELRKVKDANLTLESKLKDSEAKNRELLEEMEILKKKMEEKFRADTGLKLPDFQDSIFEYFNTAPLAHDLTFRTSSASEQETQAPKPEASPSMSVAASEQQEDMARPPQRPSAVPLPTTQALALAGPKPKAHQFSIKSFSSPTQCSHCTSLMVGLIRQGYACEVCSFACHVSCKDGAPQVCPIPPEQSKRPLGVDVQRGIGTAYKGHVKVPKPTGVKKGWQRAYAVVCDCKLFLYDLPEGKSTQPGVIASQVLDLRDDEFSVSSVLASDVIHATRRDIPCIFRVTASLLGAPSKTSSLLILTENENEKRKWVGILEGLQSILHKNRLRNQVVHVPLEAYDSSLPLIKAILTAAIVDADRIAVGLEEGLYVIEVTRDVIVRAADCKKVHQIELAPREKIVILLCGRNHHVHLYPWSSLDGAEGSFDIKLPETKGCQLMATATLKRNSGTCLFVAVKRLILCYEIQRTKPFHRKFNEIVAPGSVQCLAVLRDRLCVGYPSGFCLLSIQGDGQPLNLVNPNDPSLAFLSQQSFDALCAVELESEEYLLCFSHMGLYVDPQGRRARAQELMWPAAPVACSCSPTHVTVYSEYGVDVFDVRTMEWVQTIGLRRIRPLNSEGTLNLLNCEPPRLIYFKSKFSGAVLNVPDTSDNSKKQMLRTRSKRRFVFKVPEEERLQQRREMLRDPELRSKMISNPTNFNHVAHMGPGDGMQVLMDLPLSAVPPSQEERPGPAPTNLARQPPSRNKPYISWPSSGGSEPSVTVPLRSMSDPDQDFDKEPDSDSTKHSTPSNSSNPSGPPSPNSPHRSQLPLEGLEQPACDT
5'-AMP-activated protein kinase catalytic subunit alpha-1, sequence (Q13131 whole entry, looked up): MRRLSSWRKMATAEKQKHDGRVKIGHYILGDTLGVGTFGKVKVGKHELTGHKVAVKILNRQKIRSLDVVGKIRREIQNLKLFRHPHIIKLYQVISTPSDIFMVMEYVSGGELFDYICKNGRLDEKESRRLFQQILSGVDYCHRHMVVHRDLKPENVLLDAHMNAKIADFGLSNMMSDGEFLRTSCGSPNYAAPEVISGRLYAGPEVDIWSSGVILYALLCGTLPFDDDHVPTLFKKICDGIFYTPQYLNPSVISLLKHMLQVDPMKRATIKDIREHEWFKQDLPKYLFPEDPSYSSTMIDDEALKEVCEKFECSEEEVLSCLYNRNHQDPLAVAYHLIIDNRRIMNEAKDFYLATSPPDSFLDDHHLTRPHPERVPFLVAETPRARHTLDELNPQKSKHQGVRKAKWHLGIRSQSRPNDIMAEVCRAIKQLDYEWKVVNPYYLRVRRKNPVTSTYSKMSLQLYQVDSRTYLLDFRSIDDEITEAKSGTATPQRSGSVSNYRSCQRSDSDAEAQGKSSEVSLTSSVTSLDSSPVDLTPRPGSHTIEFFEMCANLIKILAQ

**Q.** `COc1cc(Nc2nc(C)cc(-c3cnn4nc(OC)ccc34)n2)cc(C(F)(F)F)c1` was tested. Which % of control [1] did it give?
**A.** The % of control was 86%.

**Q.** Which % of control [2] does the source give for `CC(=O)c1cc(-c2ccccc2OCC2CC2)c2ncccn12` here?
**A.** The % of control was 89%.

**Q.** With `CC[C@@H]1[C@H](F)C(=O)N[C@@H]1COc1nccc2cc(C(N)=O)c(OC)cc12` [ZIMLOVISERTIB] as the compound, how does the % of inhibition [3] read?
**A.** The % of inhibition was -3%.

**Q.** What about the % of inhibition ([4]; at 0.01 µM) of the same compound?
**A.** The % of inhibition was 8.5%.

**Q.** And the % of inhibition ([4]; at 0.04 µM)?
**A.** Its % of inhibition is -2.3%.

**Q.** And the % of inhibition ([4]; at 0.2 µM)?
**A.** Its % of inhibition is -7.6%.

**Q.** And the % of inhibition ([4]; at 1 µM)?
**A.** Its % of inhibition is 6.9%.

**Q.** And the % of inhibition ([4]; at 5 µM)?
**A.** The % of inhibition was -26.2%.

**Q.** `CCC(=O)N1CCN(c2ccc(-n3c(=O)ccc4cnc5ccc(-c6cnc7ccccc7c6)cc5c43)cc2C(F)(F)F)CC1` was tested. Which % of control [5] did it give?
**A.** Its % of control is 91%.

**Q.** What about the % of control [6] of the same compound?
**A.** The % of control was 100%.

**Q.** `O[C@H]1CC[C@H](Nc2ncc3nc(Nc4c(F)cc(F)cc4F)n([C@H]4CCOC4)c3n2)CC1` was tested. Which % of control [7] did it give?
**A.** Its % of control is 100%.

**Q.** For `Cc1cc([C@@H](C)Nc2ccccc2C(=O)O)c2nc(N3CCOCC3)cc(=O)n2c1` [AZD-6482], which % of control [8] is on record?
**A.** Its % of control is 100%.

**Q.** For `Cc1ccc(-c2ccc3c(ccc4sc5c(c43)NC[C@@H](C)NC5=O)n2)cn1`, which % of inhibition [9] is on record?
**A.** Its % of inhibition is 4%.

**Q.** How did the XC50 [10] turn out when `CCn1c(-c2nc3cc(C(=O)N4CCCC(N)C4)ccc3n2C)cc2ccccc21` (centres undefined) was run?
**A.** Its XC50 is over 15.8 µM.
